In ChEMBL document CHEMBL5120831, “Pep5-based antitumor peptides containing multifunctional fragments with enhanced activity and synergistic effect” (Eur J Med Chem, 2022):
Calls of active or inactive are those of the source. No cut-off for these calls is given here. Numbered stars: 1 amine (or outer) side, 2 acyl side, 3 side chain; on linkers, the order of the positions; unused ones are H or OH. Bridge positions count the residues as written; N and C are the ends. Square brackets hold non-standard residues; d marks the D form. Peptide text beside a SMILES is read from it. I, II: the chains in the order shown. ξ: configuration not given here. X1 = O=C([C@H](Cc1c[nH]c2ccccc12)N(c1ccc([N+](=O)[O-])c2nonc12)[*:1])[*:2]; ξN = NC(=O)CC(N)C(=O)O

How the values were obtained:
[1] = test system: HepG2; experiment: Cytotoxicity against human HepG2 cells assessed as cell viability at 30 uM measured after 24 hrs by CCK-8 assay relative to control; type: functional; conditions: read-out: Activity
[2] = test system: A549; experiment: Cytotoxicity against human A549 cells assessed as cell viability at 30 uM measured after 24 hrs by CCK-8 assay relative to control; type: functional; conditions: read-out: Activity
[3] = test system: HepG2; experiment: Cytotoxicity against human HepG2 cells assessed as reduction in cell viability measured after 24 hrs by CCK-8 assay; type: functional, cell-based; conditions: for IC50: HepG2, 24 h
[4] = Cytotoxicity against human L02 cells assessed as reduction in cell viability measured after 24 hrs by CCK-8 assay; type: toxicity, cell-based
[5] = test system: A549; experiment: Cytotoxicity against human A549 cells assessed as reduction in cell viability measured after 24 hrs by CCK-8 assay; type: functional, cell-based; conditions: for IC50: A549, 24 h
[6] = Cytotoxicity against human BEAS-2B cells assessed as reduction in cell viability measured after 24 hrs by CCK-8 assay; type: toxicity, cell-based
[7] = test system: HepG2; experiment: Induction of apoptosis in human HepG2 cells assessed as viable cells at 15 uM measured after 24 hrs by Annexin V-FITC/propidium iodide staining based flow cytometry relative to control; type: functional; conditions: read-out: Activity
[8] = test system: A549; experiment: Induction of apoptosis in human A549 cells assessed as viable cells at 15 uM measured after 24 hrs by Annexin V-FITC/propidium iodide staining based flow cytometry relative to control; type: functional; conditions: read-out: Activity
[9] = test system: L02; experiment: Induction of apoptosis in human L02 cells assessed as reduction in viable cells at 15 uM measured after 24 hrs by Annexin V-FITC/propidium iodide staining based flow cytometry; type: toxicity, cell-based; conditions: l02, 24 h
[10] = test system: BEAS-2B; experiment: Induction of apoptosis in human BEAS-2B cells assessed as reduction in viable cells at 15 uM measured after 24 hrs by Annexin V-FITC/propidium iodide staining based flow cytometry; type: toxicity, cell-based
[11] = Drug uptake in human HepG2 cells at 15 uM measured after 1 hr by Hoechst 33258 staining based confocal laser scanning microscopy; type: ADME, cell-based; conditions: hepg2, 1 h
[12] = Drug uptake in human A549 cells at 15 uM measured after 1 hr by Hoechst 33258 staining based confocal laser scanning microscopy; type: ADME, cell-based; conditions: a549, 1 h
[13] = Drug uptake in human L02 cells at 15 uM measured after 1 hr by Hoechst 33258 staining based confocal laser scanning microscopy; type: ADME, cell-based; conditions: l02, 1 h
[14] = Drug uptake in human BEAS-2B cells at 15 uM measured after 1 hr by Hoechst 33258 staining based confocal laser scanning microscopy; type: ADME, cell-based
[15] = Drug uptake in human HepG2 cells at 15 uM measured after 1 hr by Hoechst 33258 staining based flow cyotmetry; type: ADME, cell-based; conditions: hepg2, 1 h
[16] = Drug uptake in human A549 cells at 15 uM measured after 1 hr by Hoechst 33258 staining based flow cyotmetry; type: ADME, cell-based; conditions: a549, 1 h
[17] = Drug uptake in human L02 cells at 15 uM measured after 1 hr by Hoechst 33258 staining based flow cyotmetry; type: ADME, cell-based; conditions: l02, 1 h
[18] = Drug uptake in human BEAS-2B cells at 15 uM measured after 1 hr by Hoechst 33258 staining based flow cyotmetry; type: ADME, cell-based
[19] = test system: HepG2; experiment: Induction of morphological changes in human HepG2 cells assessed as decrease in cell number at 15 uM measured after 24 hrs by high-throughput microscopy; type: functional, cell-based
[20] = test system: HepG2; experiment: Induction of morphological changes in human HepG2 cells assessed as appearance of abnormal cell morphology at 15 uM measured after 24 hrs by high-throughput microscopy; type: functional, cell-based
[21] = test system: HepG2; experiment: Induction of apoptosis in human HepG2 cells assessed as increase in late apoptotic cells at 15 uM measured after 24 hrs by Annexin V-FITC/propidium iodide staining based flow cytometry; type: functional, cell-based
[22] = test system: HepG2; experiment: Induction of apoptosis in human HepG2 cells assessed as increase in necrotic cells at 15 uM measured after 24 hrs by Annexin V-FITC/propidium iodide staining based flow cytometry; type: functional, cell-based
[23] = test system: A549; experiment: Induction of apoptosis in human A549 cells assessed as increase in late apoptotic cells at 15 uM measured after 24 hrs by Annexin V-FITC/propidium iodide staining based flow cytometry; type: functional, cell-based
[24] = test system: A549; experiment: Induction of apoptosis in human A549 cells assessed as increase in necrotic cells at 15 uM measured after 24 hrs by Annexin V-FITC/propidium iodide staining based flow cytometry; type: functional, cell-based
[25] = test system: A549; experiment: Induction of cell membrane disruption in human A549 cells assessed as increase in LDH release at 15 uM measured after 1 hr by LDH releasing reagent based assay
[26] = test system: HepG2; experiment: Induction of cell membrane disruption in human HepG2 cells assessed as increase in LDH release at 15 uM measured after 1 hr by LDH releasing reagent based assay

Row | Compound | IC50 [3] | IC50 at 24 h [4] | IC50 [5] | IC50 at 24 h [6] | Activity [9] | Activity [10] | Activity [19] | Activity [20] | Activity [21] | Activity [22] | Activity [23] | Activity [24] | Activity [25] | Activity [26] | further results
1 | N=C(N)NCCC[C@H](NC(=O)[C@H](CCCNC(=N)N)NC(=O)[C@H](CCCNC(=N)N)NC(=O)[C@H](CCC(N)=O)NC(=O)[C@H](CCCNC(=N)N)NC(=O)[C@H](CCCNC(=N)N)NC(=O)[C@H](CCCCN)NC(=O)[C@H](CCCCN)NC(=O)[C@H](CCCNC(=N)N)NC(=O)CNC(=O)[C@@H](N)Cc1ccc(O)cc1)C(=O)O | > 100 µM | > 100 µM | > 100 µM | > 100 µM | Non-Toxic | Non-Toxic |  |  |  |  |  |  |  |  | viability at 30 µM [1]: > 90%; viability at 30 µM [2]: > 90%; viability at 15 µM [7]: > 80%; viability at 15 µM [8]: > 80%
2 | CC(C)C[C@H](NC(=O)[C@H](CCCCN)NC(=O)CNC(=O)[C@H](CC(C)C)NC(=O)[C@@H](NC(=O)[C@@H](NC(=O)[C@H](CC(C)C)NC(=O)[C@H](CCC(=O)O)NC(=O)[C@H](Cc1c[nH]c2ccccc12)Nc1ccc([N+](=O)[O-])c2nonc12)C(C)C)C(C)C)C(=O)N[C@@H](CC(C)C)C(=O)N[C@@H](CC(C)C)C(=O)N[C@@H](Cc1c[nH]cn1)C(=O)N[C@@H](Cc1c[nH]cn1)C(=O)N[C@@H](CC(C)C)C(=O)N[C@@H](CC(C)C)C(=O)N[C@@H](Cc1c[nH]cn1)C(=O)N[C@@H](Cc1c[nH]cn1)C(=O)N[C@@H](CC(C)C)C(=O)N[C@@H](CC(C)C)C(=O)N[C@@H](Cc1c[nH]cn1)C(=O)N[C@@H](Cc1c[nH]cn1)C(=O)N[C@@H](CCCNC(=N)N)C(=O)N[C@@H](CCCNC(=N)N)C(=O)N[C@@H](CCCNC(=N)N)C(=O)N[C@@H](CCCNC(=N)N)C(=O)N[C@@H](CCCNC(=N)N)C(=O)N[C@@H](CCCNC(=N)N)C(=O)N[C@@H](CCCNC(=N)N)C(=O)N[C@@H](CCCNC(=N)N)C(=O)N[C@@H](CCCNC(=N)N)C(=O)O (H-[X1]ELVVLGKLLLHHLLHHLLHHRRRRRRRRR-OH) |  |  |  |  |  |  |  |  |  |  |  |  |  |  | Drug uptake [11]: Active; Drug uptake [12]: Active; Drug uptake [13]: Active; Drug uptake [14]: Active; Drug uptake [15]: Active; Drug uptake [16]: Active; Drug uptake [17]: Active; Drug uptake [18]: Active
3 | I: H-WELVVLGKLGLRKRLRKFRNKIKEK / II: H-GLRKRLRKFR[ξN]KIKEK-OH (amide I:C-II:4) | 13.2 µM | 18.4 µM | 13.1 µM | 19.8 µM | Non-Toxic | Non-Toxic | Active | Active | Active | Active | Active | Active | Active | Active | 
4 | CC(C)C[C@H](NC(=O)[C@H](CCCCN)NC(=O)CNC(=O)[C@H](CC(C)C)NC(=O)[C@@H](NC(=O)[C@@H](NC(=O)[C@H](CC(C)C)NC(=O)[C@H](CCC(=O)O)NC(=O)[C@@H](N)Cc1c[nH]c2ccccc12)C(C)C)C(C)C)C(=O)N[C@@H](CCCNC(=N)N)C(=O)N[C@@H](CCCNC(=N)N)C(=O)N[C@@H](CCCNC(=N)N)C(=O)N[C@@H](CCCNC(=N)N)C(=O)N[C@@H](CCCNC(=N)N)C(=O)N[C@@H](CCCNC(=N)N)C(=O)N[C@@H](CCCNC(=N)N)C(=O)N[C@@H](CCCNC(=N)N)C(=O)N[C@@H](CCCNC(=N)N)C(=O)O (H-WELVVLGKLRRRRRRRRR-OH) | 14.4 µM | 21.6 µM | 17.3 µM | 22.8 µM | Non-Toxic | Non-Toxic | Active | Active | Active | Active | Active | Active | Active | Active | Activity ([3]; DDE = dose-dependent effect): Dde; Activity ([5]; DDE = dose-dependent effect): Dde
5 | CC(C)C[C@H](NC(=O)[C@H](CCCCN)NC(=O)CNC(=O)[C@H](CC(C)C)NC(=O)[C@@H](NC(=O)[C@@H](NC(=O)[C@H](CC(C)C)NC(=O)[C@H](CCC(=O)O)NC(=O)[C@@H](N)Cc1c[nH]c2ccccc12)C(C)C)C(C)C)C(=O)N[C@@H](CC(C)C)C(=O)N[C@@H](CC(C)C)C(=O)N[C@@H](Cc1c[nH]cn1)C(=O)N[C@@H](Cc1c[nH]cn1)C(=O)N[C@@H](CC(C)C)C(=O)N[C@@H](CC(C)C)C(=O)N[C@@H](Cc1c[nH]cn1)C(=O)N[C@@H](Cc1c[nH]cn1)C(=O)N[C@@H](CC(C)C)C(=O)N[C@@H](CC(C)C)C(=O)N[C@@H](Cc1c[nH]cn1)C(=O)N[C@@H](Cc1c[nH]cn1)C(=O)N[C@@H](CCCNC(=N)N)C(=O)N[C@@H](CCCNC(=N)N)C(=O)N[C@@H](CCCNC(=N)N)C(=O)N[C@@H](CCCNC(=N)N)C(=O)N[C@@H](CCCNC(=N)N)C(=O)N[C@@H](CCCNC(=N)N)C(=O)N[C@@H](CCCNC(=N)N)C(=O)N[C@@H](CCCNC(=N)N)C(=O)N[C@@H](CCCNC(=N)N)C(=O)O (H-WELVVLGKLLLHHLLHHLLHHRRRRRRRRR-OH) | 10.1 µM | 15.6 µM | 10.5 µM | 18.5 µM | Non-Toxic | Non-Toxic | Active | Active | Active | Active | Active | Active | Active | Active | 
6 | N=C(N)NCCC[C@H](NC(=O)[C@H](CCCNC(=N)N)NC(=O)[C@H](CCCNC(=N)N)NC(=O)[C@H](CCCNC(=N)N)NC(=O)[C@H](CCCNC(=N)N)NC(=O)[C@H](CCCNC(=N)N)NC(=O)[C@H](CCCNC(=N)N)NC(=O)[C@H](CCCNC(=N)N)NC(=O)[C@@H](N)CCCNC(=N)N)C(=O)O | > 100 µM | > 100 µM | > 100 µM | > 100 µM | Non-Toxic | Non-Toxic |  |  |  |  |  |  |  |  | viability at 30 µM [1]: > 90%; viability at 30 µM [2]: > 90%; viability at 15 µM [7]: > 80%; viability at 15 µM [8]: > 80%
7 | CC(C)C[C@H](NC(=O)[C@H](CCCCN)NC(=O)CNC(=O)[C@H](CC(C)C)NC(=O)[C@@H](NC(=O)[C@@H](NC(=O)[C@H](CC(C)C)NC(=O)[C@H](CCC(=O)O)NC(=O)[C@@H](N)Cc1c[nH]c2ccccc12)C(C)C)C(C)C)C(=O)O (H-WELVVLGKL-OH) |  |  | 90 µM |  | Non-Toxic | Non-Toxic |  |  |  |  |  |  |  |  | 
